# Results as given in patent US20200109394A1, “COMPOSITIONS AND METHODS FOR ISOLATING CIRCULATING CELLS” (Prescient Pharma LLC, priority 2018, published 2020).
# Columns and labels:
# HT29 cells [1] = assay: Depletion of HT29 cells loaded with Fe2DG by external magnet in McCoy's 5A medium (microscopy); format: cell-based, human; conditions: Fe2DG 1 mg per 1 ml in McCoy's 5A medium with 10% FBS, RT 1 hour, 30 min inside round magnet vs outside, Hematoxylin stain
# Description: In this fourth Example, the effect of external magnet on suspension HT29 cells (human adenocarcinoma) in complete McCoy's 5A medium after adding of Fe2DG was studied. Suspension of HT29 cells (ATCC HTB-38) in McCoy's 5A medium with 10% of FBS was count by Countess automated cell counter (Invitrogen). Results: live cells 3.6×10^6/ml, dead cells 1.6×10^5/ml, Viability 96% Fe2DG was added to the cell suspension in final concentration 1 mg per 1 ml. Cells then were incubated in RT for 1 hour. Then the suspension was divided on two portions. Both portions were placed inside of plastic tube (10 cm long, 3 mm in diameter). One tube was placed inside of the round magnet, another tube was outside of the magnet. After incubation for 30 min; contains of both tubes were gently pushed out, and placed on the glass slide, and stained by Hematoxylin. Slides were examined under light microscope Olympus BX51 and pictures were taken using Olympus DP73 digital camera.
# A375-eGFP-puro cells = assay: Enrichment of A375-eGFP-puro cells incubated with Fe2DG by external magnet from mixture with whole human blood (FACS); format: cell-based; conditions: Fe2DG 1 mg per 1 ml in human whole blood, RT 2 hours, 30 min in magnet; fraction #2 (tube out of magnet) vs fraction #1, FACS
# Description: In this second Example, the effect of external magnet on suspension A375-eGFP-puro cells (human melanoma) in whole blood after adding of Fe2DG was studied.
# A375-eGFP-puro cells (Imanis Life Science) has enhanced Green Fluorescent Protein as a reporter. And can be detected by fluorescent microscope of FACS because of green fluorescence.
# For routine maintenance, A375-eGFP-puro cells were grown in DMEM complete growth medium (Cat. No. 30-2002; ATCC, Manassas, Va.) supplemented by 10% FBS, Penicillin/Streptomycin and 1 ug/ml Puromycin in an incubator at 37° C. and 5% CO2. Cells were passaged every 4 days. The cells were detached from flasks using trypsin and re-suspended in 5 mL of fresh DMEM medium.
# 500 ul of A375-eGFP-puro cells suspension was added to 4 ml of fresh human volunteer whole blood. Fe2DG in final concentration 1 mg per 1 ml was added. The blood then was incubated in RT for 2 hours. Then the blood was placed inside of plastic tube (10 cm long, 3 mm outside diameter). The tube was placed inside of the round magnet. After incubation for 30 min; 0.1 ml of the blood was gently pushed through the tube and through the magnet. […] After centrifugation for 5 min 1000 rpm and removing of supernatant, the pellet was resuspended in 0.5 ml of PBS and introduced for analysis by BD fluorescence-activated cell sorter (FACS) Aria III.
# [2] = tested on: CRL-1790 cells (human fibroblasts); assay: Prussian blue iron staining of CRL-1790 cells after incubation in medium with Fe2DG; format: cell-based; conditions: Fe2DG 1 mg/ml in DMEM no glucose with 10% FBS, two hours
# Description: In this third Example, the differential ability of normal vs cancer cells (higher for malignant cells) to accumulate Iron (Fe) from Fe2DG added to medium was studied. For routine maintenance, CCD 841 CoN human colon fibroblast cells (CRL-1790; ATCC, Manassas, Va.) were grown in EMEM complete growth medium (Cat. No. 30-2003; ATCC, Manassas, Va.) supplemented by 10% FBS, and 1× Penicillin/Streptomycin in an incubator at 37° C. and 5% CO2. Cells were passaged every 4 days. For Fe2DG treatments, CCD 841 CoN cells were grown in 25 cm^2 Nunclon Delta Surface flasks (Cat. No. 136196; Thermo Fisher Scientific, Waltham, Mass.) with EMEM complete medium and kept in an incubator at 37° C. and 5% CO2 until close to 75% confluence was reached. Then medium for both cell types was replaced by DMEM no glucose (ThermoFisher Cat. No. 11966025) supplemented by 10% FBS and Fe2DG 1 mg/ml for two hours. Then medium was removed and both flasks were stained by Prussian blue staining kit “Advanced testing Iron stain” (ThermoFisher Cat. No. 87006). Cells in the flasks were fixed by 10% Formalin, then rinsed by deionized water. Then the cells were stained by freshly prepared Working Iron Solution 30 minutes at room temperature. Then the cells were rinsed by deionized water and counterstain by Nuclear Red Satin Solution for 30 seconds. […]
# HT29 cells [3] = assay: Depletion of Fe2DG-loaded HT29 cells by external magnet from mixture with whole blood (FACS); format: cell-based; conditions: Fe2DG 1 mg per 1 ml in human whole blood, RT 2 hours, 30 min inside round magnet vs outside
# Description: In this Example, the effect of external magnet on suspension HT29 cells (human adenocarcinoma) in whole blood after adding of Fe2DG was studied. For routine maintenance, HT29 cells (ATCC HTB-38) were grown in McCoy's 5A complete growth medium (Cat. No. 30-2007; ATCC, Manassas, Va.) supplemented by 10% FBS, and 1× Penicillin/Streptomycin in an incubator at 37° C. and 5% CO2. Cells were passaged every 4 days. The cells were detached from flasks using trypsin and re-suspended in 5 mL of fresh McCoy's 5A medium. Suspension of HT29 cells (ATCC HTB-38) was count by Countess automated cell counter (Invitrogen). Results: total 1.5×10^6/ml, live cells 1.4×10^6/ml, dead cells 1.3×10^5/ml, Viability 91% Cells were stained by BCECF AM (Life technologies Ref # B1150) intracellular fluorescent dye, according manufacturer instructions. 1 mg of BCECF AM (Invitrogen) was dissolved in 1 ml of DMSO and 10 aliquots were prepared. 1 aliquot was dissolved in 10 ml of Hank's Balanced Salt Solution to make working concentration (0.016 mM). Working solution of BCECF AM was added to HT29 cells suspension (5 ml of BCECF AM 5 ml of HT29 cells suspension in medium) and incubated in room temperature for 30 minutes in the dark. 500 ul of HT29 suspension was added to 4 ml of fresh human volunteer whole blood. Fe2DG in final concentration 1 mg per 1 ml was added. The blood then was incubated in RT for 2 hours. […]
# HT29 cells [4] = assay: Prussian blue iron staining of HT29 cells after incubation in medium with Fe2DG; format: cell-based, human; conditions: Fe2DG 1 mg/ml in DMEM no glucose with 10% FBS, two hours
# Description: In this third Example, the differential ability of normal vs cancer cells (higher for malignant cells) to accumulate Iron (Fe) from Fe2DG added to medium was studied. For routine maintenance, HT29 cells (ATCC HTB-38) were grown in McCoy's 5 A complete growth medium (Cat. No. 30-2007; ATCC, Manassas, Va.) supplemented by 10% FBS, and 1× Penicillin/Streptomycin in an incubator at 37° C. and 5% CO2. Cells were passaged every 4 days. For Fe2DG treatments, HT29 cells (ATCC HTB-38) cells were grown in 25 cm^2 Nunclon Delta Surface flasks (Cat. No. 136196; Thermo Fisher Scientific, Waltham, Mass.) with McCoy's 5A complete medium and kept in an incubator at 37° C. and 5% CO2 until close to 75% confluence was reached. Then medium for both cell types was replaced by DMEM no glucose (ThermoFisher Cat. No. 11966025) supplemented by 10% FBS and Fe2DG 1 mg/ml for two hours. Then medium was removed and both flasks were stained by Prussian blue staining kit “Advanced testing Iron stain” (ThermoFisher Cat. No. 87006). Cells in the flasks were fixed by 10% Formalin, then rinsed by deionized water. Then the cells were stained by freshly prepared Working Iron Solution 30 minutes at room temperature. Then the cells were rinsed by deionized water and counterstain by Nuclear Red Satin Solution for 30 seconds. […]
# WBC = assay: Effect on WBC of magnetic trapping in the HT29/whole blood mixture with Fe2DG (FACS); format: cell-based; conditions: Fe2DG 1 mg per 1 ml in human whole blood, RT 2 hours, 30 min inside round magnet
# Description: 500 ul of HT29 suspension was added to 4 ml of fresh human volunteer whole blood. Fe2DG in final concentration 1 mg per 1 ml was added. The blood then was incubated in RT for 2 hours. Then the blood was divided on two portions. Both portions were placed inside of plastic tube (10 cm long, 3 mm outside diameter). One tube was placed inside of the round magnet, another tube was outside of the magnet. After incubation for 30 min; contents of both tubes were gently pushed out. RBC were lysed by adding 4 volumes of distillate water for 30 sec. Then PBS was added to restore osmolarity. After centrifugation for 5 min 1000 rpm and removing of supernatant, the pellet was resuspended in 0.5 ml of PBS and introduced for analysis by BD FACS Aria III
substance,measurement,setting,value
Fe (III)-2 deoxy D glucose [Fe2DG],depletion of HT29 cells in the sample pushed out of the tube inside the magnet,HT29 cells [1],significant depletion
same,enrichment of A375-eGFP-puro cells in the second fraction (2nd),A375-eGFP-puro cells,18.5 times
same,accumulation of iron (Prussian blue stain) in normal human fibroblasts (CRL-1790),[2],practically no accumulation of Iron
same,depletion of BCECF AM stained HT29 cells (gate 4) in the sample pushed out of the tube inside the magnet,HT29 cells [3],significant depletion
same,accumulation of iron (Prussian blue stain) in cancer cells (HT29),HT29 cells [4],significant accumulation of iron
same,specificity of magnetic trapping: effect on WBC,WBC,without affect WBC
